The source of these data is PubChem BioAssay (NCI).

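48-hour exposure; five concentrations; linearly interpolated endpoints. TGI: concentration producing complete growth inhibition.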 Some results are limits rather than exact numbers.

The subject of the first assay is U251 CNS. The assay can be described thus: inhibition of tumour cell growth, NCI panel, 48 h.
Take `CCOC(CN(C)C(=O)Nc1cccc2ccccc12)OCC`: the TGI was more than 10 µM.
As to `O=c1oc2ccc3ccccc3c2cc1-c1cn2ccccc2n1`, the TGI was more than 100 µM.

For the next assay, the system named is NCI/ADR-RES ovarian. The assay is described as follows: inhibition of tumour cell growth, NCI panel, 48 h.
In turn, `N#Cc1c(N)nc(-c2ccc(Cl)cc2)c2c1-c1ccccc1S(=O)(=O)CC2` came in with a TGI of more than 100 µM.
`O=C1/C(=C/c2ccccc2O)N=C(c2ccccc2)N1C1Nc2cc3c(cc2S1)NC(N1C(=O)/C(=C/c2ccccc2O)N=C1c1ccccc1)S3` (stereo not drawn) returned a TGI of more than 100 µM.
The same measure, in the same setting: the result for `CCOC(CN(C)C(=O)Nc1cccc2ccccc12)OCC` reads more than 10 µM.
In turn, `O=c1oc2ccc3ccccc3c2cc1-c1cn2ccccc2n1` yielded a TGI of more than 100 µM.

The next assay deals with NCI-H226 lung. The assay can be described thus: inhibition of tumour cell growth, NCI panel, 48 h.
`N#Cc1c(N)nc(-c2ccc(Cl)cc2)c2c1-c1ccccc1S(=O)(=O)CC2`: the TGI was more than 100 µM.
`O=C1/C(=C/c2ccccc2O)N=C(c2ccccc2)N1C1Nc2cc3c(cc2S1)NC(N1C(=O)/C(=C/c2ccccc2O)N=C1c1ccccc1)S3` (stereo not drawn) yielded a TGI of more than 100 µM.
`CCOC(CN(C)C(=O)Nc1cccc2ccccc12)OCC` gave a TGI of more than 10 µM.
Consider `O=c1oc2ccc3ccccc3c2cc1-c1cn2ccccc2n1`, for which the TGI was more than 100 µM.

A further assay has as its system SNB-19 CNS. The assay can be described thus: inhibition of tumour cell growth, NCI panel, 48 h.
Molecule `N#Cc1c(N)nc(-c2ccc(Cl)cc2)c2c1-c1ccccc1S(=O)(=O)CC2` displayed a TGI of 93.9 µM.
`CCOC(CN(C)C(=O)Nc1cccc2ccccc12)OCC`: the TGI is more than 10 µM.

In a further assay the test system is NCI-H460 lung. The assay can be described thus: inhibition of tumour cell growth, NCI panel, 48 h.
`N#Cc1c(N)nc(-c2ccc(Cl)cc2)c2c1-c1ccccc1S(=O)(=O)CC2` yielded a TGI of more than 100 µM.
`O=C1/C(=C/c2ccccc2O)N=C(c2ccccc2)N1C1Nc2cc3c(cc2S1)NC(N1C(=O)/C(=C/c2ccccc2O)N=C1c1ccccc1)S3` (stereo not drawn) came in with a TGI of more than 100 µM.
In the case of `CCOC(CN(C)C(=O)Nc1cccc2ccccc12)OCC`, the TGI is more than 10 µM.
`O=c1oc2ccc3ccccc3c2cc1-c1cn2ccccc2n1` returned a TGI of more than 100 µM.

The next assay deals with K-562 leukemia. The assay is described as follows: inhibition of tumour cell growth, NCI panel, 48 h.
Molecule `N#Cc1c(N)nc(-c2ccc(Cl)cc2)c2c1-c1ccccc1S(=O)(=O)CC2` yielded a TGI of more than 100 µM.
For `O=C1/C(=C/c2ccccc2O)N=C(c2ccccc2)N1C1Nc2cc3c(cc2S1)NC(N1C(=O)/C(=C/c2ccccc2O)N=C1c1ccccc1)S3` (stereo not drawn), the TGI was more than 100 µM.
On the same count and under the same terms, the result for `CCOC(CN(C)C(=O)Nc1cccc2ccccc12)OCC` reads more than 10 µM; that for `O=c1oc2ccc3ccccc3c2cc1-c1cn2ccccc2n1`, more than 100 µM.

In a further assay the test system is PC-3 prostate. The assay is described as follows: inhibition of tumour cell growth, NCI panel, 48 h.
For the molecule `N#Cc1c(N)nc(-c2ccc(Cl)cc2)c2c1-c1ccccc1S(=O)(=O)CC2`, the TGI is more than 100 µM.
In the case of `O=C1/C(=C/c2ccccc2O)N=C(c2ccccc2)N1C1Nc2cc3c(cc2S1)NC(N1C(=O)/C(=C/c2ccccc2O)N=C1c1ccccc1)S3` (stereo not drawn), the TGI was more than 100 µM.
In turn, `CCOC(CN(C)C(=O)Nc1cccc2ccccc12)OCC` returned a TGI of more than 10 µM.
Same read-out and setting: the figure for `O=c1oc2ccc3ccccc3c2cc1-c1cn2ccccc2n1` is more than 100 µM.

For a further assay, the system named is OVCAR-8 ovarian. The assay can be described thus: inhibition of tumour cell growth, NCI panel, 48 h.
`N#Cc1c(N)nc(-c2ccc(Cl)cc2)c2c1-c1ccccc1S(=O)(=O)CC2`: the TGI was more than 100 µM.
`O=C1/C(=C/c2ccccc2O)N=C(c2ccccc2)N1C1Nc2cc3c(cc2S1)NC(N1C(=O)/C(=C/c2ccccc2O)N=C1c1ccccc1)S3` (stereo not drawn) yielded a TGI of more than 100 µM.
With `CCOC(CN(C)C(=O)Nc1cccc2ccccc12)OCC`, the TGI was more than 10 µM.
For `O=c1oc2ccc3ccccc3c2cc1-c1cn2ccccc2n1`, the TGI is more than 100 µM.

The test system of another assay is SF-295 CNS. The assay can be described thus: inhibition of tumour cell growth, NCI panel, 48 h.
`O=C1/C(=C/c2ccccc2O)N=C(c2ccccc2)N1C1Nc2cc3c(cc2S1)NC(N1C(=O)/C(=C/c2ccccc2O)N=C1c1ccccc1)S3` (stereo not drawn) yielded a TGI of more than 100 µM.
The molecule `CCOC(CN(C)C(=O)Nc1cccc2ccccc12)OCC` came in with a TGI of more than 10 µM.
Still for that read-out and setting: the figure for `O=c1oc2ccc3ccccc3c2cc1-c1cn2ccccc2n1` is more than 100 µM.

The next assay relates to EKVX NSCLC. The assay can be described thus: inhibition of tumour cell growth, NCI panel, 48 h.
For the molecule `O=C1/C(=C/c2ccccc2O)N=C(c2ccccc2)N1C1Nc2cc3c(cc2S1)NC(N1C(=O)/C(=C/c2ccccc2O)N=C1c1ccccc1)S3` (stereo not drawn), the TGI was more than 100 µM.
`CCOC(CN(C)C(=O)Nc1cccc2ccccc12)OCC` came in with a TGI of more than 10 µM.
Turning to `O=c1oc2ccc3ccccc3c2cc1-c1cn2ccccc2n1`, the TGI was more than 100 µM.

A further assay has as its system MDA-MB-231 breast. The assay is described as follows: inhibition of tumour cell growth, NCI panel, 48 h.
`N#Cc1c(N)nc(-c2ccc(Cl)cc2)c2c1-c1ccccc1S(=O)(=O)CC2` had a TGI of more than 100 µM.
In the case of `O=C1/C(=C/c2ccccc2O)N=C(c2ccccc2)N1C1Nc2cc3c(cc2S1)NC(N1C(=O)/C(=C/c2ccccc2O)N=C1c1ccccc1)S3` (stereo not drawn), the TGI is more than 100 µM.
Same read-out and setting: the result for `CCOC(CN(C)C(=O)Nc1cccc2ccccc12)OCC` reads more than 10 µM; that for `O=c1oc2ccc3ccccc3c2cc1-c1cn2ccccc2n1`, more than 100 µM.

The next assay deals with HCT-116 colon. The assay can be described thus: inhibition of tumour cell growth, NCI panel, 48 h.
`N#Cc1c(N)nc(-c2ccc(Cl)cc2)c2c1-c1ccccc1S(=O)(=O)CC2`: the TGI is more than 100 µM.
The molecule `O=C1/C(=C/c2ccccc2O)N=C(c2ccccc2)N1C1Nc2cc3c(cc2S1)NC(N1C(=O)/C(=C/c2ccccc2O)N=C1c1ccccc1)S3` (stereo not drawn) yielded a TGI of more than 100 µM.
Still for that read-out and setting: the result for `CCOC(CN(C)C(=O)Nc1cccc2ccccc12)OCC` reads more than 10 µM; that for `O=c1oc2ccc3ccccc3c2cc1-c1cn2ccccc2n1`, more than 100 µM.

The subject of the next assay is M14 melanoma. The assay can be described thus: inhibition of tumour cell growth, NCI panel, 48 h.
Consider `N#Cc1c(N)nc(-c2ccc(Cl)cc2)c2c1-c1ccccc1S(=O)(=O)CC2`, for which the TGI is more than 100 µM.
Regarding `O=C1/C(=C/c2ccccc2O)N=C(c2ccccc2)N1C1Nc2cc3c(cc2S1)NC(N1C(=O)/C(=C/c2ccccc2O)N=C1c1ccccc1)S3` (stereo not drawn), the TGI was more than 100 µM.
Still for that read-out and setting: the figure for `CCOC(CN(C)C(=O)Nc1cccc2ccccc12)OCC` is more than 10 µM; for `O=c1oc2ccc3ccccc3c2cc1-c1cn2ccccc2n1` it is more than 100 µM.

Another assay has as its system A549 NSCLC. The assay can be described thus: inhibition of tumour cell growth, NCI panel, 48 h.
`N#Cc1c(N)nc(-c2ccc(Cl)cc2)c2c1-c1ccccc1S(=O)(=O)CC2`: the TGI was more than 100 µM.
The molecule `CCOC(CN(C)C(=O)Nc1cccc2ccccc12)OCC` showed a TGI of more than 10 µM.
Regarding `O=c1oc2ccc3ccccc3c2cc1-c1cn2ccccc2n1`, the TGI is more than 100 µM.

Another assay has as its system UO-31 renal. The assay can be described thus: inhibition of tumour cell growth, NCI panel, 48 h.
With `N#Cc1c(N)nc(-c2ccc(Cl)cc2)c2c1-c1ccccc1S(=O)(=O)CC2`, the TGI is more than 100 µM.
Molecule `O=C1/C(=C/c2ccccc2O)N=C(c2ccccc2)N1C1Nc2cc3c(cc2S1)NC(N1C(=O)/C(=C/c2ccccc2O)N=C1c1ccccc1)S3` (stereo not drawn) returned a TGI of more than 100 µM.
For `CCOC(CN(C)C(=O)Nc1cccc2ccccc12)OCC`, the TGI was more than 10 µM.
Still for that read-out and setting: the result for `O=c1oc2ccc3ccccc3c2cc1-c1cn2ccccc2n1` reads more than 100 µM.
